ChEMBL document CHEMBL1955725, “Structure-guided lead optimization of triazolopyrimidine-ring substituents identifies potent Plasmodium falciparum dihydroorotate dehydrogenase inhibitors with clinical candidate potential” (J Med Chem, 2011)
pEC50, pIC50: −log10 of the molar value. Converted amounts (≈) assume the structure as drawn.

Assays:
[1] = biological target: T1, Dihydroorotate dehydrogenase (Plasmodium falciparum, UniProt Q54A96)
T1 sequence (Q54A96 whole entry): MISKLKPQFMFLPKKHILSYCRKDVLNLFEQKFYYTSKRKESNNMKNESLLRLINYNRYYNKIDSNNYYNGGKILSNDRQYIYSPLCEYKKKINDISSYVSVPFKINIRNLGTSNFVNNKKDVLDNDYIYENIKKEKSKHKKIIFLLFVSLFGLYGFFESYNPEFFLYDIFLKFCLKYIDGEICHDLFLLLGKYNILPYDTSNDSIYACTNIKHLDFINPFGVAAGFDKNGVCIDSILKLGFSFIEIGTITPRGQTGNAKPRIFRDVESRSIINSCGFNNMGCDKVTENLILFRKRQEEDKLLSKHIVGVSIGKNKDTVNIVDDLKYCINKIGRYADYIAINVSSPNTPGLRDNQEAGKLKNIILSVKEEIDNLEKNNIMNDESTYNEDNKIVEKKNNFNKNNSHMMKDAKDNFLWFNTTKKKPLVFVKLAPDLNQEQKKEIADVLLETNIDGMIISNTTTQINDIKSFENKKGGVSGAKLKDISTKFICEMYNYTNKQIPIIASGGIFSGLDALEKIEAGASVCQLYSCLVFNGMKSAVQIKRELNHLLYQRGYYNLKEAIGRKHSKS
Description: Inhibition of Plasmodium falciparum C-terminal hexa-His tagged DHODH expressed in Escherichia coli by DCIP reduction assay

Plasma = test: Plasma protein binding in human by chromatographic method; type: ADME, cell-free
Liver microsomes = test: Intrinsic clearance in human liver microsomes; type: ADME, Microsome
Liver = test: Intrinsic clearance in mouse liver microsomes; type: ADME, Microsome
Plasmodium falciparum = test: Antimalarial activity against Plasmodium falciparum 3D7 by [3H]hypoxanthine incorporation assay in presence of human serum; type: functional, organism-based
[2] = Lipophilicity, log D of the compound at pH 7.4; type: physicochemical; details: buffer
[3] = Aqueous solubility of the compound at pH 6.5; type: physicochemical
[4] = Inhibition of Plasmodium berghei C-terminal hexa-His tagged DHODH expressed in Escherichia coli by DCIP reduction assay
[5] = biological target: Dihydroorotate dehydrogenase (quinone), mitochondrial (Homo sapiens, UniProt Q02127)
Chain of Dihydroorotate dehydrogenase (quinone), mitochondrial (Q02127 whole entry): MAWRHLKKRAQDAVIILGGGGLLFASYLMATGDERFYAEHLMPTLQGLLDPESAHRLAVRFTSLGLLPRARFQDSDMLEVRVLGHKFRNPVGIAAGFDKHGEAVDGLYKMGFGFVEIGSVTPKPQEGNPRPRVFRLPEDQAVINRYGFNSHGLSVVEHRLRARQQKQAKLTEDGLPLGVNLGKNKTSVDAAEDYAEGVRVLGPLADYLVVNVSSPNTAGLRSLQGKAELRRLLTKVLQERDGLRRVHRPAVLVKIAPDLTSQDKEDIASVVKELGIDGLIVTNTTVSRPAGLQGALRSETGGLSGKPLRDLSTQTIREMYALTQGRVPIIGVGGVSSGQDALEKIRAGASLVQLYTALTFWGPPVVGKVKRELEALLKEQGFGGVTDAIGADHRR
Description: Inhibition of human C-terminal hexa-His tagged DHODH expressed in Escherichia coli by DCIP reduction assay

Structure (SMILES)	pIC50 [1]	pEC50 (Plasmodium falciparum)	further results
Cc1cc(Nc2cccc(Cl)c2)n2nc(CC3CC3)nc2n1	< 5.00		
CNCCOc1nc2nc(C)cc(Nc3ccc(S(F)(F)(F)(F)F)cc3)n2n1	< 5.00		
Cc1cc(Nc2ccc(Cl)cc2)n2nc(CC(C)C)nc2n1	< 5.00		
Cc1cc(Nc2cccc(Cl)c2)n2nc(CC(C)C)nc2n1	< 5.00		
CCc1nc2nc(C)cc(Nc3cccc(Cl)c3)n2n1	6.62	5.48	PPB (Plasma): 86.7%; Intrinsic clearance (Liver microsomes): 78.3 µL/min/mg; Intrinsic clearance (Liver): 125.4 µL/min/mg; logD [2]: 2.8; solubility [3]: 170 µM (≈ 48.9 µg/mL)
Cc1cc(Nc2cccc(Cl)c2)n2nc(C(C)C)nc2n1	6.92	5.96	pIC50 [4]: 6.24
Cc1cc(Nc2ccc(C(F)(F)F)cc2)n2nc(C(C)C)nc2n1	6.96	7.01	pIC50 [4]: 5.35; pIC50 [5]: < 4.00
Cc1cc(Nc2ccc(S(F)(F)(F)(F)F)cc2)n2nc(C(C)C)nc2n1	7.00	6.38	pIC50 [4]: 5.42; pIC50 [5]: < 4.00
Cc1cc(Nc2ccc(C(F)(F)F)cc2)n2nc(CC(C)C)nc2n1	5.70		
Cc1cc(Nc2ccc(S(F)(F)(F)(F)F)cc2)n2nc(CC(C)C)nc2n1	< 5.00		
Cc1cc(Nc2ccc(C(F)(F)F)cc2)n2nc(C(C)(C)C)nc2n1	6.34	6.54	pIC50 [4]: 4.82; pIC50 [5]: < 4.00
Cc1cc(Nc2ccc(S(F)(F)(F)(F)F)cc2)n2nc(C(C)(C)C)nc2n1	6.26	5.64	pIC50 [4]: 4.80; pIC50 [5]: < 4.00
CCC(C)c1nc2nc(C)cc(Nc3ccc(C(F)(F)F)cc3)n2n1 (configuration not stated)	6.42	6.57	pIC50 [4]: 5.34; pIC50 [5]: < 4.00
CCC(C)c1nc2nc(C)cc(Nc3ccc(S(F)(F)(F)(F)F)cc3)n2n1 (configuration not stated)	6.48	6.29	pIC50 [4]: 5.35; pIC50 [5]: < 4.00
Cc1cc(Nc2ccc(Cl)cc2)n2nc(C3CC3)nc2n1	6.06	5.17	pIC50 [4]: 5.55; pIC50 [5]: < 4.00
Cc1cc(Nc2cccc(Cl)c2)n2nc(C3CC3)nc2n1	6.09		pIC50 [4]: 5.77; pIC50 [5]: < 4.00
Cc1cc(Nc2ccc(Cl)cc2)n2nc(CC3CC3)nc2n1	4.92		
Cc1cc(Nc2ccc(C(F)(F)F)cc2)n2nc(CC3CC3)nc2n1	5.77	5.47	
Cc1cc(Nc2ccc(S(F)(F)(F)(F)F)cc2)n2nc(CC3CC3)nc2n1	5.24	< 5.00	
Cc1cc(Nc2cccc(Cl)c2)n2nc(C(C)(F)F)nc2n1	7.27	6.89	PPB (Plasma): 88.2%; Intrinsic clearance (Liver microsomes): 44.4 µL/min/mg; Intrinsic clearance (Liver): 72.2 µL/min/mg; logD [2]: 3; solubility [3]: 77 µM (≈ 24.9 µg/mL)
CCC(F)(F)c1nc2nc(C)cc(Nc3ccc(Cl)cc3)n2n1	7.47	7.03	pIC50 [4]: 5.74; pIC50 [5]: < 4.00
CCC(F)(F)c1nc2nc(C)cc(Nc3cccc(Cl)c3)n2n1	7.52	5.92	pIC50 [4]: 5.85; pIC50 [5]: < 4.00
Cc1cc(Nc2ccc(C(F)(F)F)cc2)n2nc(C(F)(F)F)nc2n1	7.46	7.14	Intrinsic clearance (Liver microsomes): < 5 µL/min/mg; Intrinsic clearance (Liver): < 6 µL/min/mg; pIC50 [4]: 5.89; pIC50 [5]: < 4.00

Structure (SMILES)	pIC50 [1]	pEC50 (Plasmodium falciparum)	further results
Cc1cc(Nc2ccc(S(F)(F)(F)(F)F)cc2)n2nc(C(F)(F)F)nc2n1	7.52	6.85	Intrinsic clearance (Liver microsomes): < 5 µL/min/mg; Intrinsic clearance (Liver): < 6 µL/min/mg; pIC50 [4]: 5.60; logD [2]: 3.7; solubility [3]: 30 µM (≈ 12.6 µg/mL)
COCc1nc2nc(C)cc(Nc3ccc(Cl)cc3)n2n1	5.66		
COCc1nc2nc(C)cc(Nc3cccc(Cl)c3)n2n1	5.77		
COCCc1nc2nc(C)cc(Nc3ccc(Cl)cc3)n2n1	< 5.00		
COCCc1nc2nc(C)cc(Nc3cccc(Cl)c3)n2n1	< 5.00		
COCCc1nc2nc(C)cc(Nc3ccc(C(F)(F)F)cc3)n2n1	5.60	5.38	PPB (Plasma): 73.7%; Intrinsic clearance (Liver microsomes): 9 µL/min/mg; Intrinsic clearance (Liver): 14.3 µL/min/mg; logD [2]: 2.7; solubility [3]: 71 µM (≈ 24.9 µg/mL)
COCCc1nc2nc(C)cc(Nc3ccc(S(F)(F)(F)(F)F)cc3)n2n1	5.60	5.30	PPB (Plasma): 87.7%; Intrinsic clearance (Liver microsomes): 11.5 µL/min/mg; Intrinsic clearance (Liver): 14.1 µL/min/mg; logD [2]: 3; solubility [3]: 31 µM (≈ 12.7 µg/mL)
CSc1nc2nc(C)cc(Nc3ccc(Cl)cc3)n2n1	7.52	6.82	
CSc1nc2nc(C)cc(Nc3cccc(Cl)c3)n2n1	7.59	6.82	
CSc1nc2nc(C)cc(Nc3ccc(C(F)(F)F)cc3)n2n1	7.44	8.08	PPB (Plasma): 91.8%; Intrinsic clearance (Liver microsomes): 18.7 µL/min/mg; Intrinsic clearance (Liver): 76.9 µL/min/mg; pIC50 [4]: 5.32; logD [2]: 3.2; solubility [3]: 19 µM (≈ 6.45 µg/mL)
CSc1nc2nc(C)cc(Nc3ccc(S(F)(F)(F)(F)F)cc3)n2n1	7.52	7.49	PPB (Plasma): 97.7%; Intrinsic clearance (Liver microsomes): 22.4 µL/min/mg; Intrinsic clearance (Liver): 107.5 µL/min/mg; pIC50 [4]: < 5.00; logD [2]: 3.5; solubility [3]: 7.8 µM (≈ 3.1 µg/mL)
Cc1cc(Nc2ccc(Cl)cc2)n2nc(S(C)(=O)=O)nc2n1	7.35	5.85	
Cc1cc(Nc2cccc(Cl)c2)n2nc(S(C)(=O)=O)nc2n1	6.80	< 5.60	
Cc1cc(Nc2ccc(C(F)(F)F)cc2)n2nc(S(C)(=O)=O)nc2n1	7.05	6.77	
Cc1cc(Nc2ccc(S(F)(F)(F)(F)F)cc2)n2nc(S(C)(=O)=O)nc2n1	6.96	5.70	
COc1nc2nc(C)cc(Nc3cccc(Cl)c3)n2n1		6.01	pIC50 [4]: 5.89
COc1nc2nc(C)cc(Nc3ccc(Cl)cc3)n2n1	6.34	6.23	pIC50 [4]: 5.92
CCOc1nc2nc(C)cc(Nc3cccc(Cl)c3)n2n1	6.40	5.36	pIC50 [4]: 5.72; pIC50 [5]: < 4.00
CCOc1nc2nc(C)cc(Nc3ccc(Cl)cc3)n2n1	6.57	5.89	pIC50 [4]: 5.80; pIC50 [5]: < 4.00
COCCOc1nc2nc(C)cc(Nc3ccc(Cl)cc3)n2n1	< 5.00		
COCCOc1nc2nc(C)cc(Nc3cccc(Cl)c3)n2n1	5.31		pIC50 [4]: < 5.00
CNCCOc1nc2nc(C)cc(Nc3ccc(Cl)cc3)n2n1	< 5.00		
CNCCOc1nc2nc(C)cc(Nc3cccc(Cl)c3)n2n1	< 5.00		

Structure (SMILES)	pIC50 [1]	pEC50 (Plasmodium falciparum)	further results
CNCCOc1nc2nc(C)cc(Nc3ccc(C(F)(F)F)cc3)n2n1	< 5.00		
Cc1cc(Nc2ccc(Cl)cc2)n2nc(OCCN(C)C)nc2n1	< 5.00		
Cc1cc(Nc2cccc(Cl)c2)n2nc(OCCN(C)C)nc2n1	< 5.00		
Cc1cc(Nc2ccc(C(F)(F)F)cc2)n2nc(OCCN(C)C)nc2n1	< 5.00		
Cc1cc(Nc2ccc(S(F)(F)(F)(F)F)cc2)n2nc(OCCN(C)C)nc2n1	< 5.00		
Cc1cc(Nc2cccc(Cl)c2)n2nc(OCCN)nc2n1	< 5.00		
Cc1cc(Nc2ccc(C(F)(F)F)cc2)n2nc(OCCN)nc2n1	< 5.00		
Cc1cc(Nc2ccc(Cl)cc2)n2nc(OCCN)nc2n1	< 5.00		
Cc1cc(Nc2ccc(Cl)cc2)n2[nH]c(=O)nc2n1	< 5.00		
Cc1cc(Nc2cccc(Cl)c2)n2[nH]c(=O)nc2n1	< 5.00		
CNCCc1nc2nc(C)cc(Nc3ccc(Cl)cc3)n2n1	< 5.00	< 5.60	
Cc1cc(Nc2ccc(Cl)cc2)n2nc(CN)nc2n1	< 5.00		
CNCc1nc2nc(C)cc(Nc3ccc(Cl)cc3)n2n1	< 5.00		
Cc1cc(Nc2ccc(Cl)cc2)n2nc(CN(C)C)nc2n1	< 5.00		
CNCCc1nc2nc(C)cc(Nc3cccc(Cl)c3)n2n1	< 5.00	< 5.60	
Cc1cc(Nc2cccc(Cl)c2)n2nc(CN(C)C)nc2n1	< 5.00		
Cc1cc(Nc2cccc(Cl)c2)n2nc(CN)nc2n1	< 5.00		
CNCc1nc2nc(C)cc(Nc3cccc(Cl)c3)n2n1	< 5.00		
Cc1cc(Nc2ccc(Cl)cc2)n2nc(CCN)nc2n1	< 5.00		
Cc1cc(Nc2ccc(Cl)cc2)n2nc(CO)nc2n1	5.28	< 5.60	
Cc1cc(Nc2cccc(Cl)c2)n2nc(CO)nc2n1	5.21	< 5.00	
Cc1cc(Nc2ccc(C(F)(F)F)cc2)n2nc(CCO)nc2n1	6.03	6.32	PPB (Plasma): 67%; Intrinsic clearance (Liver microsomes): < 5 µL/min/mg; Intrinsic clearance (Liver): 6.9 µL/min/mg; logD [2]: 2.2; solubility [3]: 19 µM (≈ 6.41 µg/mL)
Cc1cc(Nc2cccc(Cl)c2)n2ncnc2n1			logD [2]: 2.4
